Results published in US20200268703A1, “MEDICINE FOR TREATING ADVANCED OR RECURRENT CANCER PATIENT BEING NON-RESPONSIVE OR NON-TOLERANT TO STANDARD CHEMOTHERAPY AND INCURABLE AND UNRESECTABLE” (HYOGO COLLEGE OF MEDICINE, priority 2017, published 2020).
Several values for one entry are separate records, joined by “and”; a condition that tells them apart may be missing. Equal entries are not always repeated.

System: advanced or recurrent gastric cancer which is non-responsive or non-tolerant to standard chemotherapy and incurable and unresectable
Assay: Clinical trial of propagermanium in patients with advanced or recurrent gastric cancer (OS, PFS, lung metastasis imaging)
Type: in vivo, human
Conditions: for OS / PFS: 30 mg orally per day
Method: 30 mg of propagermanium [trade name: SEROCION (registered trademark), produced by SANWA KAGAKU KENKYUSHO CO., LTD.] was administered orally in three divided doses per day after meals to 13 patient cases (P-1 to P-13) who were diagnosed as advanced or recurrent gastric cancer which is non-responsive or non-tolerant to standard chemotherapy [gastric cancer treatment guideline fourth edition (edited by Japan Gastric cancer Association, revised in May 2014)] and incurable and unresectable, and a clinical trial was conducted with overall survival (hereinafter also referred to as “OS”) and progression-free survival (hereinafter also referred to as “PFS”) as evaluation items. This clinical trial was conducted under an approval of Ethics Committee of Hyogo College of Medicine (No. 1911). The ECOG performance status (hereinafter also referred to as “PS”), the OS, and the PFS of 13 patient cases are shown in Table 1.
On the other hand, in Hyogo College of Medicine Hospital from 2009 to 2011, in 62 cases which were diagnosed as advanced gastric cancer which is non-responsive or non-tolerant to standard chemotherapy and incurable and unresectable and for which palliative care (Best Supportive Care; hereinafter “BSC”) to reduce pain was provided, the median of OS from the time when a doctor explained BSC to the patient was 22 days.
13 Patient cases in which the propagermanium was administered and 62 patient cases in which the BSC was provided were divided into two groups of (A) 0 and 1 and (B) 2 and 3 according to PS thereof. In the two groups, medians of the OS in the propagermanium administration examples and BSC examples were compared. As a result, in the patient groups whose PS was (A) 0 and 1, the median of OS in the BSC examples was 23.5 days, whereas the median of OS in the propagermanium administration examples was 163 days. The survival time was extended approximately 7 times compared to the BSC examples. […] Accordingly, it was confirmed that the survival days were extended compared to the BSC examples.
In 13 patient cases in which the propagermanium was administered, mean values of OS were compared according to the presence and absence of the peritoneal metastasis (Table 2 and FIG. 4). As a result, the mean value of OS of 8 patient cases with the peritoneal metastasis was 81.1 days, whereas the mean value of OS of 5 patient cases without the peritoneal metastasis was 164.7 days. […] In addition, 13 patient cases in which the propagermanium was administered were divided into two groups of (C) 0 and 1 and (D) 2 and 3 according to the PS thereof. In the two groups, mean values of the OS were compared according to the presence or absence of the peritoneal metastasis (Table 2 and FIG. 4). As a result, in the patient group whose PS was (C) 0 and 1, the mean value of OS of 4 cases with the peritoneal metastasis was 139 days, whereas the mean value of OS of 3 cases without the peritoneal metastasis was 273 days. […] On the other hand, in the patient group whose PS was (D) 2 and 3, the mean value of OS of 4 cases with the peritoneal metastasis was 37.8 days, whereas the mean value of OS of 2 cases without the peritoneal metastasis was 56.3 days.

In the case of propagermanium, the “Median of PFS” value (13 patient cases) was 49 days, the “Median of OS” value (13 patient cases, BSC examples (62 cases) 22 days) was 73 days and the “Kaplan Meier survival curves of OS versus BSC (FIG. 1)” value (13 propagermanium cases versus 62 BSC cases) was “significant life prolongation effect”. The “Mean value of OS” value ((C) PS 0 and 1, with peritoneal metastasis, 4 cases) was 139 days and 139 (4) days, the “Mean value of OS” value ((C) PS 0 and 1, without peritoneal metastasis, 3 cases) was 273 days and 273 (3) days and the “Mean value of OS” value ((D) PS 2 and 3, with peritoneal metastasis, 4 cases) was 37.8 days and 37.8 (4) days. For the same substance, the “Mean value of OS” value ((D) PS 2 and 3, without peritoneal metastasis, 2 cases) was 56.3 days and 56.3 (2) days, the “OS without versus with peritoneal metastasis” value (“OS without versus” for short) (all 13 propagermanium patient cases) was “significant life prolongation effect” and the “Mean value of OS” value (all patients, with peritoneal metastasis, 8 cases) was 81.1 days and 81.1 (8) days. For the same substance, the “Mean value of OS” value (all patients, without peritoneal metastasis, 5 cases) was 164.7 days and 164.7 (5) days, the OS (patient P-1, PS 2) was 76 days and the PFS (patient P-1, PS 2) was 56 days. It also gave an OS (patient P-2, PS 3) of 34 days, a PFS (patient P-2, PS 3) of 3 days and an OS (patient P-3, PS 0) of 344 days. It also gave a PFS (patient P-3, PS 0) of 336 days, an OS (patient P-4, PS 2) of 72 days and a PFS (patient P-4, PS 2) of 28 days. The “Lesion site of lung (lung metastasis), imaging (FIG. 5)” value (patient P-5, 357th day after starting administration) was “scar was formed”, the PFS (patient P-5, PS 1) was 392 days and the “Lesion site of lung (lung metastasis), imaging (FIG. 5)” value (patient P-5, from the 35th day after starting administration) was “reduction was observed”. The OS (patient P-6, PS 3) was 36 days, the PFS (patient P-6, PS 3) was 22 days and the OS (patient P-7, PS 0) was 83 days. The PFS (patient P-7, PS 0) was 49 days, the OS (patient P-8, PS 1) was 73 days and the PFS (patient P-8, PS 1) was 73 days. For the same substance, the OS (patient P-9, PS 3) was 30 days, the PFS (patient P-9, PS 3) was 21 days and the OS (patient P-10, PS 2) was 11 days. It also gave a PFS (patient P-10, PS 2) of 7 days, an OS (patient P-11, PS 0) of 163 days and a PFS (patient P-11, PS 0) of 159 days. It also gave an OS (patient P-12, PS 1) of 181 days, a PFS (patient P-12, PS 1) of 178 days and an OS (patient P-13, PS 1) of 61 days. The PFS (patient P-13, PS 1) was 36 days, the “Kaplan Meier survival curve of OS versus BSC (FIG. 2)” value (patient group PS (A) 0 and 1) was “significant life prolongation effect” and the “Survival time extension compared to BSC examples” value (patient group PS (A) 0 and 1) was “approximately 7 times”. The “Median of OS” value (patient group PS (A) 0 and 1, BSC examples 23.5 days) was 163 days, the “Median of OS” value (patient group PS (B) 2 and 3, BSC examples 22 days) was 35 days and the “Kaplan Meier survival curve of OS versus BSC (FIG. 3)” value (patient group PS (B) 2 and 3, significant difference not confirmed) was “tendency to prolong life”. The “OS without versus” value (patient group PS (C) 0 and 1) was “significant life prolongation effect” and the “OS without versus” value (patient group PS (D) 2 and 3, significant difference not confirmed) was “tendency to prolong life”.
